From patent publication US6291673A, “Folic acid derivatives” (Purdue Research Foundation, priority 2000, dated 2001)
Values joined by “and” are separate entries in the source; they are usually repeats but may differ in a detail not shown here. Identical values can stand only once.

Tests used:
carboxypeptidase G [1] = test: Carboxypeptidase G enantiospecific hydrolysis of folic acid derivatives (HPLC of released pteroic acid); type: biochemical; conditions: Tris buffer with ZnCl2, 37° C., 2 h, pyrofolates and monoesters first hydrolysed in 0.25 M NaOH, error about ±2-3%
Experimental: Since it had been previously observed that guanidine bases are capable of racemizing acylated glutamates (under more forcing conditions than were employed in the reactions listed in Table 2), the optical purity of the folic acid 1 (=25a) and several of its derivatives which had been produced was evaluated. […] In order to assay the pyrofolates 8 and 9 as well as the α- and γ-monoesters of folic acid L-33a and L-33c, an initial mild basic hydrolysis was required prior to the enzyme assay. […] Control reactions on synthetic D-1=25a and DL-1=25a (Table 3, Entries 3,4) serve to confirm the error limits of the enzymatic method at about ±2-3%.
Determination of optical purity of folate derivatives listed in Table 3 using enzymatic hydrolysis with carboxypeptidase G:30:
The folic acid derivative (~2.5 mg) was dissolved in 1 mL Tris buffer containing 20 μg ZnCl2 and 50 microunit enzyme (Sigma Chemical Company) was added. The solution was incubated at 37° C. for 2 h. A 20 μL sample was tested by HPLC on a […] MICROSORB C-18 reverse phase column (Eluent A: 5 mM phosphate buffer; Eluent B: acetonitrile; flow rate: 1 mL/min; gradient: 0-5 min, 5% B, 10-15, 25% B). Folic acid was eluted at 4.1 min, pteroic acid at 10.6 min, methotrexate at 10.8 min, and amino-N10-methyl pteroic acid at 11.9 min. Peak area was used as the standard for analysis.
For folate derivatives, ~5 mg was first dissolved in 1 mL 0.25 M NaOH and incubated at room temperature for 1 h. Then the solution was acidified by 1 M HCl until precipitation. After centrifugation, washing, and drying, the ~2.5 mg yellow pellet was dissolved in 1 mL Tris buffer and reacted with enzyme under the conditions described above.

[2] = Storage stability of pteroylazide 27; type: physicochemical
Description: The known impurities include ~4% pteroic acid 10, ~2% of the aniline (PteNH2) apparently resulting from Curtius rearrangement of 27, ~2% of pteroylamide (PteCO--NH2 11); and <1% of folic acid 1. […] Unlike some acyl azides, pteroylazide 27 is quite stable; samples of the lemon-yellow solid may be stored in the dark in a freezer for at least 12 months without appreciable decomposition.

carboxypeptidase G [3] = conditions: footnote c of Table 3; cited from earlier work
[4] = target: T1, cell surface folate receptors (Homo sapiens, UniProt P15328); test: Affinities of FITC-EDA-folate for cell surface folate receptors on KB cells; type: binding
T1 construct: KB cells overexpressing the receptor; endogenous in cells; host or cells: KB cells
Experimental: To determine the affinities of EDA-folate for cell surface folate receptors, the α- and γ-isomers were labeled with the fluorophore FITC and incubated with KB cells overexpressing the receptor. […] The low level of non-specific uptake observed with both isomers was probably due to the hydrophobicity of the FITC conjugates.

T1 sequence (P15328 25-257): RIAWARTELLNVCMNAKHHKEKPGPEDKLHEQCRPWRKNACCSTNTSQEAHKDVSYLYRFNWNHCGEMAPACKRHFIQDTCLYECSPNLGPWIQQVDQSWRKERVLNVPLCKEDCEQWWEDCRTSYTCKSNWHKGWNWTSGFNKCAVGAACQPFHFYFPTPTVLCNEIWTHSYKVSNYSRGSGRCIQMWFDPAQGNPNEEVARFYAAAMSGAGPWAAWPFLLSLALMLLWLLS

| % Hydrolysis (carboxypeptidase G [1]) | Compound | also measured |
| --- | --- | --- |
| 52.3% | Nc1nc2ncc(CNc3ccc(C(=O)NC(CCC(=O)O)C(=O)O)cc3)nc2c(=O)[nH]1 (racemic) [D, L-25a] | – |
| 54.4% | COC(=O)CCC(NC(=O)c1ccc(NCc2cnc3nc(N)[nH]c(=O)c3n2)cc1)C(=O)O (racemic) [DL-33a, (DL)-methyl folate (γ)] | – |
| 49.5% | Nc1nc2ncc(CN(C(=O)C(F)(F)F)c3ccc(C(=O)N4C(=O)CCC4C(=O)O)cc3)nc2c(=O)[nH]1 (centres unmarked) [Compound 8, N10-Trifluoroacetylpyrofolic acid] | – |
| 51.7% | Nc1nc2ncc(CNc3ccc(C(=O)N4C(=O)CCC4C(=O)O)cc3)nc2c(=O)[nH]1 (centres unmarked) [Compound 9, Pyrofolic acid] | – |
| – | [N-]=[N+]=NC(=O)c1ccc(NCc2cnc3nc(N)[nH]c(=O)c3n2)cc1 [Compound 27, Pteroylazide] | shelf life ([2]; room temperature, protected from light): at least a month; HPLC profile after exposure to light ([2]; samples exposed to light (darken appreciably)): not substantially degraded; storage time without appreciable decomposition ([2]; solid, in the dark in a freezer): at least 12 months |
| 3.0% | Nc1nc2ncc(CNc3ccc(C(=O)N[C@H](CCC(=O)O)C(=O)O)cc3)nc2c(=O)[nH]1 [Compound D-25a] | – |
| – | CN(Cc1cnc2nc(N)nc(N)c2n1)c1ccc(C(=O)N[C@H](CCC(=O)O)C(=O)O)cc1 [Compound D-34d] | hydrolysis by carboxypeptidase G (carboxypeptidase G [3]): not to be hydrolyzed |
| 96.7% | Nc1nc2ncc(CNc3ccc(C(=O)N[C@@H](CCC(=O)O)C(=O)O)cc3)nc2c(=O)[nH]1 [Compound L-1, Folic acid] | % Hydrolysis (carboxypeptidase G [1]; listed as L-25a): 98.4% and 98.6%; competition with the receptor binding of FITC-EDA-folate(γ) ([4]; excess folic acid in the incubation medium, KB cells): effectively competed |
| 96.8% | COC(=O)CC[C@H](NC(=O)c1ccc(NCc2cnc3nc(N)[nH]c(=O)c3n2)cc1)C(=O)O [Compound L-33a, Tetramethylguanidinium (L)-methyl folate (γ)] | – |
| 85.9% and 96.7% | CC(C)=CCOC(=O)[C@H](CCC(=O)O)NC(=O)c1ccc(NCc2cnc3nc(N)[nH]c(=O)c3n2)cc1 [Compound L-33c] | – |
| – | Nc1nc(O)c2nc(CNc3ccc(C(=O)N[C@@H](CCC(=O)NCCNC(=S)Nc4ccc5c(c4)C(=O)OC54c5ccc(O)cc5Oc5cc(O)ccc54)C(=O)O)cc3)cnc2n1 [FITC-EDA-folate(γ)] | Kd ([4]; KB cells overexpressing the receptor, read-out: concentration required to reach 50% maximal binding): 1.6 nM |
| – | Nc1nc2ncc(CNc3ccc(C(=O)N[C@@H](CCC(=O)O)C(=O)NCCNC(=S)Nc4ccc5c(c4)C(=O)OC54c5ccc(O)cc5Oc5cc(O)ccc54)cc3)nc2c(=O)[nH]1 [α-isomer of FITC-EDA-folate] | affinity for the cell surface receptors ([4]; KB cells overexpressing the receptor): virtually no affinity |

| Compound | % Hydrolysis (carboxypeptidase G [1]) | also measured |
| --- | --- | --- |
| CN(Cc1cnc2nc(N)nc(N)c2n1)c1ccc(C(=O)N[C@@H](CCC(=O)O)C(=O)O)cc1 [Compound L-34d, L-methotrexate, reference compound] | 96.1% and 99.2% | – |
